In publication PMC6332026, “Synthesis and Pharmacochemistry of New Pleiotropic Pyrrolyl Derivatives” (Molecules, 2015):

Key:
trypsin = target: T1, trypsin (Bos taurus, UniProt P00760); assay: Inhibition of the proteolytic activity of trypsin; assay type: biochemical; conditions: bovine albumin substrate, pH 7.6; read-out: TP IC50 (inhibition of trypsin)
T1 construct: purchased Sigma Chemical, Co. (St. Louis, MO, USA); host or cells: bovine pancreas
T1 sequence (P00760 24-246): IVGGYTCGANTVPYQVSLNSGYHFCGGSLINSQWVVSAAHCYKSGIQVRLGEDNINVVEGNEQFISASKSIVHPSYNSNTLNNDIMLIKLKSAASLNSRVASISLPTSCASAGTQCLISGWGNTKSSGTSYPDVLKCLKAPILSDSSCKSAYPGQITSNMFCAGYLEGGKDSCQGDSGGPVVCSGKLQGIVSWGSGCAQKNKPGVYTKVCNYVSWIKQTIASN
Text: Trypsin is an enzyme with an active role in inflammation. Thus, we studied the anti-proteolytic ability of the pyrrole derivatives, using salicylic acid as a reference compound. […] Comparing Compounds 2iv and 2v, the insertion of an electron-acceptor substituent (Cl) on the phenyl ring (substituent Ar^2) and the simultaneous increase of the volume of substituent Ar^2 (expressed as molar refractivity) led to an enhancement of the anti-proteolytic activity.
Carrageenan, type K, was commercially available. Cycloxygenase-2 (COX-2) and interleukin-6 (IL-6) EIA Kit, Item No. 583371 were purchased from Cayman. Trolox was obtained from Aldrich Chemical Co. (Milwaukee, WI, USA). All starting materials were obtained from commercial sources, and they were used without further purification.
The tested compounds (concentrations varying from 10 μΜ–100 μΜ in DMSO) were dissolved in a phosphate buffer (0.1 M K2HPO4–NaH2PO4·2H2O, pH = 7.6), and 0.2 mL of trypsin 0.075 mg/mL were added. The mixture was incubated at room temperature for 20 min, and then, 1 mL of bovine albumin (6 g/100 mL) was added. The mixture was incubated at 37 °C for 30 min. The reaction was stopped with the addition of 1 mL of trichloroacetic acid (5% w/w) Separation of the phases followed, with measurement of the supernatants at 280 nm at room temperature. IC50 values were determined.

soybean lipoxygenase = target: T2, soybean lipoxygenase (Glycine max, UniProt P08170); assay: Inhibition of soybean lipoxygenase (UV absorbance-based enzyme assay); assay type: biochemical; conditions: for inhibition at 100 µM: read-out: LOX % inhibition
T2 construct: purchased Sigma Chemical, Co. (St. Louis, MO, USA)
T2 sequence (P08170 1-839): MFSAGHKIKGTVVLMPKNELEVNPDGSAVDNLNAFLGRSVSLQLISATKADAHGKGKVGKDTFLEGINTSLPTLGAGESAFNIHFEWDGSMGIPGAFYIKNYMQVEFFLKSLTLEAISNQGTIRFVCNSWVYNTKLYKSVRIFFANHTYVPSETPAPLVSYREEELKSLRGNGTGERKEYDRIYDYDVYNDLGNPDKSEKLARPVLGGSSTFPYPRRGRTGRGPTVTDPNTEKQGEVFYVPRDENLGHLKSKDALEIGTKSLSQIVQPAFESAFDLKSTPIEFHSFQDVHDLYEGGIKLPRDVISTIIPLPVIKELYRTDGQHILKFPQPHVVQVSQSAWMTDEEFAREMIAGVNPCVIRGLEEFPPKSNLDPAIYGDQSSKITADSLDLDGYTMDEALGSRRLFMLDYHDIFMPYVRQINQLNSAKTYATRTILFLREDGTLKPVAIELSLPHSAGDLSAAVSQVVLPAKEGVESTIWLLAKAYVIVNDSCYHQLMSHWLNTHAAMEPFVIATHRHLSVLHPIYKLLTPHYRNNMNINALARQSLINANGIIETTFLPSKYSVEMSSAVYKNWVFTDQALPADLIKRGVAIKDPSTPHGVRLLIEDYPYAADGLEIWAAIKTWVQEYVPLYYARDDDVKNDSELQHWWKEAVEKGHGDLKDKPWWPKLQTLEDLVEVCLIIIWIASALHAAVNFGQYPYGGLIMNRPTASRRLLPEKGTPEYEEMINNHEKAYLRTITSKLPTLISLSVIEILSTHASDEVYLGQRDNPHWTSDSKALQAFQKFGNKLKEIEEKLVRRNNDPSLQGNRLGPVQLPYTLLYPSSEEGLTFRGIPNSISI
Experimental: Lipoxygenase catalyzes the first two steps in the metabolism of arachidonic acid to leukotrienes. LTB4 generation is important in the pathogenesis of neutrophil-mediated inflammatory diseases with a marked relation to the severity of cardiovascular diseases, asthma and cancer. We evaluated the synthesized pyrroles for their ability to inhibit soybean LOX by the UV absorbance-based enzyme assay. […] The inhibition of COX-2, as a peroxidase, was determined by a colorimetric assay with the oxidation of N,N,N′,N′-tetramethyl-p-phenylenediamine (TMPD).
The tested compounds were dissolved in DMSO, and the final concentration was 100 μΜ. The compounds were incubated at room temperature with sodium linoleate as a substrate (0.1 mL) in a buffer solution of Tris:HCl (pH 9.00) and 0.2 mL of a solution of soybean lipoxygenase.

[1] = Inhibition of heme-dependent lipid peroxidation of linoleic acid (TBA method); conditions: pH 7.4, 37 °C; read-out: LP IC50 (inhibition of heme-dependent lipid peroxidation of linoleic acid)
Experimental: The anti-lipid peroxidation activity was determined through the inhibition of heme-dependent lipid peroxidation. The peroxidation of sodium linoleate is induced from a mixture of heme and hydrogen peroxide, which produces free radicals from the side chains of amino acids. The assay is performed at pH 7.4 with a phosphate buffer, and the products of peroxidation are identified with the thiobarbituric acid method (TBA). In particular, malonic dialdehyde, a final product of lipid peroxidation, reacts with TBA and forms a colored product, whose absorbance is measured at 535 nm. […] Compounds 2ii and 2vi with low Clog P values are weak inhibitors of lipid peroxidation. It seems that the increase of volume of Ar^1, measured as molar refractivity MR (Ar^1), enhances IC50 values and reduces the inhibitory activity (2i and 2iii; and 2ii, 2iv and 2vi). For derivatives 2iv and 2v, the presence of an electron-acceptor, e.g., a chloro-substituent on the phenyl ring (Ar^2), diminishes the anti-lipid peroxidation activity.
Firstly, 0.4 mL of heme (50 μΜ), 0.25 mL of sodium linoleate (400 μΜ), 0.1 mL of the solutions of the tested compounds (concentrations varying from 10–100 μΜ in DMSO) and 0.25 mL of H2O2 (500 μΜ) were incubated for 10 min in 37 °C in a phosphate buffer (KH2PO4–KOH 50 mM, pH 7.4). The peroxidation products were identified with the reaction of thiobarbituric acid, by adding successively 0.5 mL of 40% trichloroacetic acid (TCA) and 0.5 mL of 2% of thiobarbituric acid (TBA). The addition was followed by stirring and heating at 90 °C for 20 min, and then, 1 mL of acetic acid and 1 mL of chloroform were added and the absorbance measured at 535 nm. IC50 values were determined.

Row | Compound | IC50 (trypsin) | IC50 (soybean lipoxygenase; pH 9.00, read-out: LOX IC50) | IC50 [1] | melting point | inhibition at 100 µM (soybean lipoxygenase)
1 | O=C(c1cccs1)c1c[nH]cc1-c1cccc(Oc2ccccc2)c1 [Compound 2i, [4-(3-Phenoxyphenyl)-1H-pyrrol-3-yl](thien-2-yl)methanone] | 60 µM | 1000 µM | 40 µM | 165 to 166 °C | –
2 | O=C(c1cccs1)c1c[nH]cc1-c1ccc(OCc2ccc(Br)cc2)cc1 [Compound 2iii, (4-{4-[(4-Bromobenzyl)oxy]phenyl}-1H-pyrrol-3-yl)(thien-2-yl)methanone] | 9 µM | – | 100 µM | 233 to 235 °C | –
3 | O=C(c1ccccc1)c1c[nH]cc1-c1cccc2ccccc12 [Compound 2iv, [4-(Naphth-1-yl)-1H-pyrrol-3-yl](phenyl)methanone] | 65 µM | – | 72 µM | 270 to 272 °C | 10%
4 | O=C(c1ccc(Cl)cc1)c1c[nH]cc1-c1cccc2ccccc12 [Compound 2v, (4-Chlorophenyl)[4-(naphth-1-yl)-1H-pyrrol-3-yl]methanone] | 8 µM | – | 150 µM | 285 to 286 °C | 32%
